Test results published in article PMC3877901, “Screening Mangrove Endophytic Fungi for Antimalarial Natural Products” (Marine Drugs, 2013).
Entries after “also recorded” stand apart in the source; their conditions may differ. Where two headings read alike, the source gives them in different places.

How the values were obtained:
[1] = test system: Plasmodium falciparum (3D7, a drug sensitive strain); experiment: Malaria assay: anti-malarial activity against Plasmodium falciparum (3D7); type: cell-based
[2] = test system: A549 human lung adenocarcinoma epithelial cells; experiment: In vitro toxicity assay: cytotoxicity against A549 cells (CellTiter 96 Aqueous One, 72 h); conditions: for IC50: Homo sapiens, A549, 72 h, read-out: IC50 (nM) A549
[3] = test system: A549 human lung adenocarcinoma epithelial cells
[4] = Plasmodium falciparum, 3D7, read-out: IC50 (nM) 3D7
[5] = Plasmodium falciparum 3D7, read-out: IC50 (nM) 3D7

| Structure (SMILES) | IC50 [1, 4] [nM] | IC50 [2] [nM] | IC50 [1, 5] [nM] | also measured |
| --- | --- | --- | --- | --- |
| C=C1[C@@H](C)[C@H]2[C@H](Cc3ccccc3)NC(=O)[C@]23[C@H](OC(C)=O)/C=C/[C@@](C)(O)C(=O)[C@@H](C)C/C=C/[C@H]3[C@@H]1O [Compound 4, cytochalasin D] | 25.8 | – | – | – |
| O=C1C(O)=C([C@H]2CC[C@H](c3ccc(Cl)cc3)CC2)C(=O)c2ccccc21 [ATO, atovaquone, reference compound] | – | > 25000 | 0.3 | – |
| C[C@H]1[C@@H](O)O[C@@H]2O[C@@]3(C)CC[C@H]4[C@H](C)CC[C@@H]1[C@@]24OO3 [DHA, dihydroartemisinin, reference compound] | – | > 25000 | 0.8 | – |
| CC(=O)OC1C=CC(C)(O)C(=O)C(C)CC=CC2C(O)C(C)=C(C)C3C(Cc4ccccc4)NC(=O)C123 (centres unmarked) [Compound 2] | 136 | – | – | – |
| COc1ccc(C)c2c1C(=O)OC(C)C2 (centres unmarked) [Compound 12, 3,5-dimethyl-8-methoxy-3,4-dihydroisocoumarin] | – | > 48500 | > 48500 | antimalarial activity (in words) ([1]; P. falciparum 3D7): devoid of antimalarial activity |
| C=C1C(C)C2C(Cc3ccccc3)NC(=O)C23C(O)C=CC(C)(O)CC(C)CC=CC3C1O (centres unmarked) [Compound 6] | – | – | < 20 | – |
| CCCc1c(Cl)c(OC)cc(OC)c1C(=O)O [Compound 11, acremonisol A] | – | > 38700 | 36000 | antimalarial activity (in words) ([1]; P. falciparum 3D7): devoid of antimalarial activity |
| CC(=O)OC[C@]12Oc3ccc(-c4ccc5c(c4O)C(=O)C4=C(O)C[C@@H](C)[C@@H](OC(C)=O)[C@]4(CO)O5)c(O)c3C(=O)C1=C(O)C[C@@H](C)[C@H]2OC(C)=O [Compound 14, dicerandrol D] | 600 | 7800 | – | S.I. A549/3D7 (selectivity index) [2]: 13; cytotoxicity relative to malaria activity ([3]; human): at least 10 fold; antimalarial activity (in words) [1]: nanomolar antimalarial activity; also recorded: strong activity against P. falciparum; also recorded: nanomolar malaria activity |
| CCC(C)CC(C)/C=C/C=C/C(=O)O (centres unmarked) [Compound 18, (2E,4E)-6,8-Dimethyldeca-2,4-dienoic Acid] | – | > 25000 | > 25000 | antimalarial activity (in words) ([1]; P. falciparum 3D7): inactive |
| CC(=O)OC1C=CC(C)(O)C(=O)C(C)CC=CC2C(O)C3(C)OC3(C)C3C(Cc4ccccc4)NC(=O)C123 (centres unmarked) [Compound 3] | < 20 | – | – | – |
| C[C@H]1CC(=O)O[C@@H]1[C@@]1(CO)CC(=O)c2c(ccc(-c3ccc(O)c4c3O[C@](CO)([C@H]3OC(=O)C[C@@H]3C)CC4=O)c2O)O1 [Compound 15, diaporthochromone A] | – | > 25000 | > 25000 | – |
| CC(=O)OC1C2OC2C(C)(O)C(=O)C(C)CC=CC2C(O)C(C)=C(C)C3C(Cc4ccccc4)NC(=O)C213 (centres unmarked) [Compound 1] | < 20 | – | – | – |
| C=C1C(C)C2C(Cc3ccccc3)NC(=O)C23C(OC(C)=O)C=CC(C)(O)CC(C)CC=CC3C1O (centres unmarked) [Compound 5] | < 20 | – | – | – |
| C=C1C2CC3OC(=O)C=CC=CC(C(C)O)OCCC(C)=CC(=O)OCC4(CCC(C)=CC4O2)C13C (centres unmarked) [Compound 10] | < 20 | < 200 | – | – |
| CC1CC(=O)OC1C1(CO)CC(=O)c2c(ccc(-c3ccc4c(c3O)C(=O)CC(CO)(C3OC(=O)CC3C)O4)c2O)O1 (centres unmarked) [Compound 16, Diaporthochromone B] | – | > 25000 | > 25000 | – |
| CCN(CC)CCCC(C)Nc1ccnc2cc(Cl)ccc12 (centres unmarked) [CQ, chloroquine, reference compound] | 4.5 | > 25000 | – | – |
| CCCCC/C=C(/C(=O)O)C(C)C(=O)O (centres unmarked) [Compound 19, piliformic acid] | – | > 25000 | > 25000 | antimalarial activity (in words) ([1]; P. falciparum 3D7): inactive |
| CC(=O)OC[C@]12Oc3ccc(-c4ccc5c(c4O)C(=O)C4=C(O)C[C@@H](C)[C@@H](OC(C)=O)[C@@]4(CO)O5)c(O)c3C(=O)C1=C(O)C[C@@H](C)[C@H]2OC(C)=O [Compound 13, Dicerandrol B] | > 25000 | > 25000 | – | cytotoxicity (in words) [3]: failed to show either activity; antimalarial activity (in words) [1]: failed to show either activity |
| CC(=O)OC1C=CC(C)(O)C(=O)C(C)CC2OC2C2C3OC3(C)C(C)C3C(Cc4ccccc4)N(C)C(=O)C132 (centres unmarked) [Compound 7] | 290 | – | – | – |
| CC(=O)OC1C=CC(C)(O)C(=O)C(C)CC=CC2C3OC3(C)C(C)C3C(Cc4ccccc4)N(C)C(=O)C123 (centres unmarked) [Compound 8] | 26 | – | – | – |
